Measured values taken from ChEMBL document CHEMBL4507303, “Data for DCP probe TP-004” (2021).

Experiments:
[1] = tested on: Tyrosine-protein kinase ABL1 (Homo sapiens), P00519 [H396P]; details: Compound concentration 1000.0 nM
[2] = tested on: Tyrosine-protein kinase ABL1 (Homo sapiens), P00519 [H396P]; details: Compound concentration 1000.0 nM; remark: listed apart in the source
[3] = tested on: Tyrosine-protein kinase ABL1 (Homo sapiens), P00519 [M351T]; details: Compound concentration 1000.0 nM
[4] = molecular target: Activin receptor type-2A (Homo sapiens) (UniProt P27037); details: Compound concentration 1000.0 nM
[5] = molecular target: Atypical kinase COQ8A, mitochondrial (Homo sapiens) (UniProt Q8NI60); details: Compound concentration 1000.0 nM
[6] = molecular target: Mitogen-activated protein kinase kinase kinase 5 (Homo sapiens) (UniProt Q99683); details: Compound concentration 1000.0 nM
[7] = molecular target: Mitogen-activated protein kinase kinase kinase 6 (Homo sapiens) (UniProt O95382); details: Compound concentration 1000.0 nM
[8] = molecular target: Bone morphogenetic protein receptor type-1B (Homo sapiens) (UniProt O00238); details: Compound concentration 1000.0 nM
[9] = molecular target: Mitotic checkpoint serine/threonine-protein kinase BUB1 (Homo sapiens) (UniProt O43683); details: Compound concentration 1000.0 nM
[10] = molecular target: Calcium/calmodulin-dependent protein kinase type II subunit delta (Homo sapiens) (UniProt Q13557); details: Compound concentration 1000.0 nM
[11] = molecular target: Cyclin-dependent kinase 11B (Homo sapiens) (UniProt P21127); details: Compound concentration 1000.0 nM
[12] = molecular target: Cyclin-dependent kinase 13 (Homo sapiens) (UniProt Q14004); details: Compound concentration 1000.0 nM
[13] = molecular target: Discoidin domain-containing receptor 2 (Homo sapiens) (UniProt Q16832); details: Compound concentration 1000.0 nM
[14] = tested on: Epidermal growth factor receptor (Homo sapiens), P00533 [UNDEFINED MUTATION]; details: Compound concentration 1000.0 nM
[15] = molecular target: Ephrin type-A receptor 2 (Homo sapiens) (UniProt P29317); details: Compound concentration 1000.0 nM
[16] = molecular target: Ephrin type-B receptor 6 (Homo sapiens) (UniProt O15197); details: Compound concentration 1000.0 nM
[17] = molecular target: Mitogen-activated protein kinase 3 (Homo sapiens) (UniProt P27361); details: Compound concentration 1000.0 nM
[18] = molecular target: Serine/threonine-protein kinase/endoribonuclease IRE1 (Homo sapiens) (UniProt O75460); details: Compound concentration 1000.0 nM
[19] = molecular target: Fibroblast growth factor receptor 1 (Homo sapiens) (UniProt P11362); details: Compound concentration 1000.0 nM
[20] = molecular target: Beta-adrenergic receptor kinase 1 (Homo sapiens) (UniProt P25098); details: Compound concentration 1000.0 nM
[21] = molecular target: Inhibitor of nuclear factor kappa-B kinase subunit beta (Homo sapiens) (UniProt O14920); details: Compound concentration 1000.0 nM
[22] = molecular target: Leucine-rich repeat serine/threonine-protein kinase 2 (Homo sapiens) (UniProt Q5S007); details: Compound concentration 1000.0 nM
[23] = molecular target: Mitogen-activated protein kinase kinase kinase 2 (Homo sapiens) (UniProt Q9Y2U5); details: Compound concentration 1000.0 nM
[24] = molecular target: Mitogen-activated protein kinase kinase kinase 10 (Homo sapiens) (UniProt Q02779); details: Compound concentration 1000.0 nM
[25] = molecular target: Serine/threonine-protein kinase Nek3 (Homo sapiens) (UniProt P51956); details: Compound concentration 1000.0 nM
[26] = molecular target: Serine/threonine-protein kinase PAK 3 (Homo sapiens) (UniProt O75914); details: Compound concentration 1000.0 nM
[27] = molecular target: Cyclin-dependent kinase 16 (Homo sapiens) (UniProt Q00536); details: Compound concentration 1000.0 nM
[28] = molecular target: Cyclin-dependent kinase 18 (Homo sapiens) (UniProt Q07002); details: Compound concentration 1000.0 nM
[29] = tested on: Phosphatidylinositol 4,5-bisphosphate 3-kinase catalytic subunit alpha isoform (Homo sapiens), P42336 [M1043I]; details: Compound concentration 1000.0 nM
[30] = molecular target: cAMP-dependent protein kinase catalytic subunit alpha (Homo sapiens) (UniProt P17612); details: Compound concentration 1000.0 nM
[31] = molecular target: Serine/threonine-protein kinase N1 (Homo sapiens) (UniProt Q16512); details: Compound concentration 1000.0 nM
[32] = molecular target: cAMP-dependent protein kinase catalytic subunit PRKX (Homo sapiens) (UniProt P51817); details: Compound concentration 1000.0 nM
[33] = molecular target: Receptor-interacting serine/threonine-protein kinase 1 (Homo sapiens) (UniProt Q13546); details: Compound concentration 1000.0 nM
[34] = molecular target: Dual serine/threonine and tyrosine protein kinase (Homo sapiens) (UniProt Q6XUX3); details: Compound concentration 1000.0 nM
[35] = molecular target: Ribosomal protein S6 kinase alpha-2 (Homo sapiens) (UniProt Q15349); details: Compound concentration 1000.0 nM
[36] = molecular target: Ribosomal protein S6 kinase alpha-2 (Homo sapiens) (UniProt Q15349); details: Compound concentration 1000.0 nM; remark: listed apart in the source
[37] = molecular target: Ribosomal protein S6 kinase beta-1 (Homo sapiens) (UniProt P23443); details: Compound concentration 1000.0 nM
[38] = molecular target: Serine/threonine-protein kinase Sgk3 (Homo sapiens) (UniProt Q96BR1); details: Compound concentration 1000.0 nM
[39] = molecular target: Serine/threonine-protein kinase ULK2 (Homo sapiens) (UniProt Q8IYT8); details: Compound concentration 1000.0 nM
[40] = molecular target: Serine/threonine-protein kinase 32B (Homo sapiens) (UniProt Q9NY57); details: Compound concentration 1000.0 nM
[41] = molecular target: Mitogen-activated protein kinase kinase kinase 20 (Homo sapiens) (UniProt Q9NYL2); details: Compound concentration 1000.0 nM
[42] = molecular target: 5-hydroxytryptamine receptor 1A (Homo sapiens) (UniProt P08908); details: Compound concentration 10.0 uM
[43] = molecular target: 5-hydroxytryptamine receptor 1E (Homo sapiens) (UniProt P28566); details: Compound concentration 10.0 uM
[44] = molecular target: D(4) dopamine receptor (Homo sapiens) (UniProt P21917); details: Compound concentration 10.0 uM
Rattus norvegicus = organism: Rattus norvegicus; details: Compound concentration 10.0 uM

Ribosomal protein S6 kinase alpha-2 (Homo sapiens), sequence (Q15349 whole entry): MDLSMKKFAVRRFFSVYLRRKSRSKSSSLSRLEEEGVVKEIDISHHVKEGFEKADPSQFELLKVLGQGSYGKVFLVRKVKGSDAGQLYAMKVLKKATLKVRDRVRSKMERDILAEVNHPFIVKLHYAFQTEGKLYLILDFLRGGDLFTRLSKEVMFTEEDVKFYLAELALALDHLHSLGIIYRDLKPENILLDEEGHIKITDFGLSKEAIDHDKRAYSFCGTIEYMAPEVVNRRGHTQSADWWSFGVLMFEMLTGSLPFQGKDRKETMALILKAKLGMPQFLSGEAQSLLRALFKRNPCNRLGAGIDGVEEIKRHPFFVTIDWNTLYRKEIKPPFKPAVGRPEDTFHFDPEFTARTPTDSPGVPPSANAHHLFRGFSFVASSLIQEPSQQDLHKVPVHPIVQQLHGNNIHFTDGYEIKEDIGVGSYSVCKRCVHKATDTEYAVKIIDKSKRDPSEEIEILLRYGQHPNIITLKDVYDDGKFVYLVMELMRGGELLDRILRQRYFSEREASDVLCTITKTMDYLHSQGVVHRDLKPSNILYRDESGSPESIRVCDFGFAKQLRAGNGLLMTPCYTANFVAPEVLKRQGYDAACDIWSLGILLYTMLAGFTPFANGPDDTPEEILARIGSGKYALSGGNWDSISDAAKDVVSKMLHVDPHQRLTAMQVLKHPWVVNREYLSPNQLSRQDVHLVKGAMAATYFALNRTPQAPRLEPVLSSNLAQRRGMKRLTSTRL
Mitogen-activated protein kinase kinase kinase 2 (Homo sapiens), sequence (Q9Y2U5 whole entry): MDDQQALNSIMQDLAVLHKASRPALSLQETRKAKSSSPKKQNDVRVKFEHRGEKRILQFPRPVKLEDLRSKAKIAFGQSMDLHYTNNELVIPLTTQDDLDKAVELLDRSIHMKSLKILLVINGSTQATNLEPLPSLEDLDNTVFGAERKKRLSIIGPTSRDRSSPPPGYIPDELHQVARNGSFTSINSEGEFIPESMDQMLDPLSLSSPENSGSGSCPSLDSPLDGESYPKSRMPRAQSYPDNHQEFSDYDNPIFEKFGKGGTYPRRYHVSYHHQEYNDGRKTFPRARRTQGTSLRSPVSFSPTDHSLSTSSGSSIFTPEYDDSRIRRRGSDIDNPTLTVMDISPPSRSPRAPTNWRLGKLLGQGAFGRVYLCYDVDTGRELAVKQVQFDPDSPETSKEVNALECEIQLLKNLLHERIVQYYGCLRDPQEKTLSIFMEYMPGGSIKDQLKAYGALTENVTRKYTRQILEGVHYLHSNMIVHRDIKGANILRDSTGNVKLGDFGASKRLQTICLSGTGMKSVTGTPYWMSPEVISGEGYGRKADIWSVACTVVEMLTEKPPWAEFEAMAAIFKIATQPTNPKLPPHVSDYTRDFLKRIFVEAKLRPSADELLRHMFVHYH
Mitogen-activated protein kinase kinase kinase 20 (Homo sapiens), sequence (Q9NYL2 2-800 limits assumed): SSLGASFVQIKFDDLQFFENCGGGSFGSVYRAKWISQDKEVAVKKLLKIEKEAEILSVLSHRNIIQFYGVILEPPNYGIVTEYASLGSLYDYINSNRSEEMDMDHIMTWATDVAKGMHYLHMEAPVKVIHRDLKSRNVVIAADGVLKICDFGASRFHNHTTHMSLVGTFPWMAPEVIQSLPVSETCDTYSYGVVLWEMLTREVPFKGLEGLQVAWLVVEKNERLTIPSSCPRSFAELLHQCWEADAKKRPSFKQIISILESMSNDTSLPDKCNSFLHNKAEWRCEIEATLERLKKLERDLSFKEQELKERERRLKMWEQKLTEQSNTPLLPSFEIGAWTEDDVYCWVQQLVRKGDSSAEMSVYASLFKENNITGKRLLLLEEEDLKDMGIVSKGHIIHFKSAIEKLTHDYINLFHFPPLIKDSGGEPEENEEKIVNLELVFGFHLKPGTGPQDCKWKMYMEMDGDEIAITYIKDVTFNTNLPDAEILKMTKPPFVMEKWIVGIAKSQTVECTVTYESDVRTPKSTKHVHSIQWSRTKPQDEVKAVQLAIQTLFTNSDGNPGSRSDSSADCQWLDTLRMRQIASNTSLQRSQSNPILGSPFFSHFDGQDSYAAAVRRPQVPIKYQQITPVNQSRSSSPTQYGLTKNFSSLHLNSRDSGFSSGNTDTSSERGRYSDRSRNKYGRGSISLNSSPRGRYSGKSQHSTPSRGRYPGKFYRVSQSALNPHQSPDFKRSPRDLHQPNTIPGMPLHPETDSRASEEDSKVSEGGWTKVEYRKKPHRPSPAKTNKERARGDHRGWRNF
Ephrin type-A receptor 2 (Homo sapiens), sequence (P29317 whole entry): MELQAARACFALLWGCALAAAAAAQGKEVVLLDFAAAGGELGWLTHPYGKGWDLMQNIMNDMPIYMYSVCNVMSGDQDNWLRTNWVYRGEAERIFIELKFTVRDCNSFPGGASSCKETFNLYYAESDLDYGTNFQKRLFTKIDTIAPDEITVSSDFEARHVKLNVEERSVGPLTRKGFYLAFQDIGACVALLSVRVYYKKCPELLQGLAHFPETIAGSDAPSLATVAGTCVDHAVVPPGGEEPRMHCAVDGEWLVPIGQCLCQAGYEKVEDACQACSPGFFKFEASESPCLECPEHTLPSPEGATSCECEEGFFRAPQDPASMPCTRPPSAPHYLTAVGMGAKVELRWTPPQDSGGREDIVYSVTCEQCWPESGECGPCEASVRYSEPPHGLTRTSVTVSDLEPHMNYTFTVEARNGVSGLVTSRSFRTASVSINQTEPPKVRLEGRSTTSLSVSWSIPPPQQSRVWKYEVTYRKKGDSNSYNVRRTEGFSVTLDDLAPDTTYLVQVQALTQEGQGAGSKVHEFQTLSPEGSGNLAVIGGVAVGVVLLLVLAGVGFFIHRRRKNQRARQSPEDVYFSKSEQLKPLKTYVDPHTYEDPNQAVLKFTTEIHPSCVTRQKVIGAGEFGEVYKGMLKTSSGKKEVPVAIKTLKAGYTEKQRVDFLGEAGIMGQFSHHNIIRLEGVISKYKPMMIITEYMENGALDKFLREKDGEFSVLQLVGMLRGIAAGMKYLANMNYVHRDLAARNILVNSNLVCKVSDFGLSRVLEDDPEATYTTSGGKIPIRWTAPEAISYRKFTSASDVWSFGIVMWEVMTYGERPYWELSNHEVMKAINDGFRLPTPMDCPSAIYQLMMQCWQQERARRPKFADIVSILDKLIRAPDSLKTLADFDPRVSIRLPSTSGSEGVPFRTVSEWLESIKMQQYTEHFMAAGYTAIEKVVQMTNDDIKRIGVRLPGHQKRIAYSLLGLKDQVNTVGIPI
Serine/threonine-protein kinase/endoribonuclease IRE1 (Homo sapiens), sequence (O75460 19-977 limits assumed): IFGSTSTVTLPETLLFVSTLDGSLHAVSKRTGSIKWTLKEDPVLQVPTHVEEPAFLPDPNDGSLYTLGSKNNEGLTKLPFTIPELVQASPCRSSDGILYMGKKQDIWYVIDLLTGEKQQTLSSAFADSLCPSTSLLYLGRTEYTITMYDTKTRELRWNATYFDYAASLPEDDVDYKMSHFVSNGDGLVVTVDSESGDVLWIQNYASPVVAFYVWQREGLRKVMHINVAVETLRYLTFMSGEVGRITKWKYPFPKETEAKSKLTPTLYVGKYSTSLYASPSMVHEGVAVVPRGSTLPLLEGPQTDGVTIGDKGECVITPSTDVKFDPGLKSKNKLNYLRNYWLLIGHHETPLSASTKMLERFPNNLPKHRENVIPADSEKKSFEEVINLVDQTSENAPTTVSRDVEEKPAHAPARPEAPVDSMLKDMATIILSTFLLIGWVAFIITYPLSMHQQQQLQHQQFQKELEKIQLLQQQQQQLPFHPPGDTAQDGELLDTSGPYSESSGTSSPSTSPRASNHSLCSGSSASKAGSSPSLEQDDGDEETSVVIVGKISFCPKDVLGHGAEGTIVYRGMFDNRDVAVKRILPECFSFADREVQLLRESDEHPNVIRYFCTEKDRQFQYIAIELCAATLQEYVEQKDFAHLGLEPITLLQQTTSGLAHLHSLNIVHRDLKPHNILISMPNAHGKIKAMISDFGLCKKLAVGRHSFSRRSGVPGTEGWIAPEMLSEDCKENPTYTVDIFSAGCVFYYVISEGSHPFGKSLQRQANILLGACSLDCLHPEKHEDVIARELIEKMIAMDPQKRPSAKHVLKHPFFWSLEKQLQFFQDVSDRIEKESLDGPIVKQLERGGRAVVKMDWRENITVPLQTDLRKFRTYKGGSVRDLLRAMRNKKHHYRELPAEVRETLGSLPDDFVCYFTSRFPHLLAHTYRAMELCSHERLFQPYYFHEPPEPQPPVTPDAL
Activin receptor type-2A (Homo sapiens), sequence (P27037 whole entry): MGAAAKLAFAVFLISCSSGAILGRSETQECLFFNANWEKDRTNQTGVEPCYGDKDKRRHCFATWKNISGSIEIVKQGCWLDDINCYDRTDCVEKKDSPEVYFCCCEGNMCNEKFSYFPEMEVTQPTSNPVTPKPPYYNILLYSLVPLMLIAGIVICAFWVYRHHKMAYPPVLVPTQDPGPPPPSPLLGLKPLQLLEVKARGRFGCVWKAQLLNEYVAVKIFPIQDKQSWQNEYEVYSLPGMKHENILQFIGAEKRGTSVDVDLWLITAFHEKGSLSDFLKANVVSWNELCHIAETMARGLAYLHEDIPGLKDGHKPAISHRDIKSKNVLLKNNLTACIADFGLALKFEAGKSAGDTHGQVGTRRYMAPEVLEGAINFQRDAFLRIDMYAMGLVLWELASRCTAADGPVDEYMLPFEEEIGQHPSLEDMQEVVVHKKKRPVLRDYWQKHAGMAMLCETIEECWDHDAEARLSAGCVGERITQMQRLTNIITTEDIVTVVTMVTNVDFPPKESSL
D(4) dopamine receptor (Homo sapiens), sequence (P21917 whole entry): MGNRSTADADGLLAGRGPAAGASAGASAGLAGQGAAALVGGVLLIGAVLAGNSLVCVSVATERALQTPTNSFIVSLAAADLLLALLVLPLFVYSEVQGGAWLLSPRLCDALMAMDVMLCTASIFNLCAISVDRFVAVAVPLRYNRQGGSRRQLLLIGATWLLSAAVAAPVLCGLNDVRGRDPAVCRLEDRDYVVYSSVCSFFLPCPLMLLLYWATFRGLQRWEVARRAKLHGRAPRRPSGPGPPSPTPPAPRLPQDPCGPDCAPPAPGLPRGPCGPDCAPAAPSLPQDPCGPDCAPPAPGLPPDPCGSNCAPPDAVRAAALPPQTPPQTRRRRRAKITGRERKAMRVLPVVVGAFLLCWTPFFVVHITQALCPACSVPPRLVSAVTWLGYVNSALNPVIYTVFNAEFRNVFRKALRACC

Cc1nc(N2CC[C@@H](O)C2)ncc1-c1cc(C(F)(F)F)cc2[nH]ncc12 [TP-004]
inactive: residual activity [1] 77% | residual activity [2] 61% | residual activity [3] 72% | residual activity [4] 73% | residual activity [5] 100% | residual activity [6] 100% | residual activity [7] 68% | residual activity [8] 60% | residual activity [9] 75% | residual activity [10] 100% | residual activity [11] 94% | residual activity [12] 90% | residual activity [13] 75% | residual activity [14] 64% | residual activity [15] 100% | residual activity [17] 100% | residual activity [18] 86% | residual activity [19] 90% | residual activity [21] 77% | residual activity [22] 58% | residual activity [23] 60% | residual activity [24] 100% | residual activity [25] 60% | residual activity [26] 72% | residual activity [27] 75% | residual activity [28] 100% | residual activity [29] 100% | residual activity [30] 83% | residual activity [31] 100% | residual activity [32] 97% | residual activity [33] 100% | residual activity [34] 88% | residual activity [35] 100% | residual activity [36] 100% | residual activity [37] 90% | residual activity [38] 70% | residual activity [39] 66% | residual activity [40] 100% | residual activity [41] 100% | inhibition [42] 20% | inhibition [43] -5.65% | inhibition [44] 7.69% | inhibition (Rattus norvegicus) 1.57%
active: residual activity [16] 36% | residual activity [20] 42%
